Data: patent US7662767B2, “Polynucleotide intercalator interceptors and inhibitors” (Materials Evolution and Development USA, Inc., priority 2000, dated 2010)

Test: Acridine orange self-association (AO-AO dimer), absorbance
Format: binding
Description: Association constants were calculated using a modification of an equation described by Zaini et al. (1999) to determine equilibrium constants for weakly bound complexes by absorbance spectrophotometry. By definition K=Xd/(Xm* Xm), where K is the binding constant Kassoc, Xd is the concentration of the AO dimer and Xm is the concentration of the AO monomer. Conservation of mass gives Xt=Xm+2*Xd, where Xt is the total concentration of AO in solution. Rearranging the conservation of mass equation gives Xm=Xt−2*Xd, and substituting into the equation for Kassoc and rearranging gives Equation 4: Kassoc(Xt*Xt−4*Xt*Xd+4*Xd*Xd)−Xd=0 EQUATION 4:
Rearranging gives: Xd*Xd−(Xt+1/(4*.Kassoc)*Xd+Xt*Xt/4=0 EQUATION5:
Applying the quadratic formula (X=[−B±SQRT(B^2−4AC]/2A) to Equation 3-5 and taking a physically reasonable root gives Equation 3-6: Xd=[Xt+1/(4*K)−SQRT(Xt/(2*K)+1/[…])]/2 EQUATION 6:
Where SQRT ( ) indicates taking the square root of the content of the parentheses. The fluorescence values at λem 530 nm (F530) is a function of Xt and F530=Xd*ε, where “ε” is the fluorescence yield of the dimer. The equation was solved by non-linear least squares using Prism™ software and binding constants determined. […] Fluorescence values (fi) are reported as raw data normalized to scale and not adjusted by a dilution factor following aliquot additions. Absorbance data taken at 468 nm was also used to calculate the Kassoc for the AO-AO dimer using Equation 6.
In the example shown in FIG. 3-1A, absorbance was scanned between 400 nm and 550 nm over a range of AO concentrations from 2.5 μM to 20 μM in a 5 mM solution of HEPES buffer at pH 7.0. […] Note that the absorbance at 492 nm (A492) is indicative of the concentration of the AO monomer, whereas the absorbance at 468 nm (A468) is indicative of the concentration of the AO-AO dimer (Kapuscinski and Kimmel, 1993). […]
The absorbance was scanned between 410 nm and 540 nm over a range of AO concentrations from 10 μM-45 μM in a 5 mM solution of […] buffer at pH 7.0 in the presence of 150 mM of NaCl. […]

## CN(C)c1ccc2cc3ccc(N(C)C)cc3nc2c1.Cl [AO, 3,6-bis[dimethylamino]acridine hydrochloride]
Absorbance plus NaCl, AO [10-45 μM]
  K ± S.D.: 47,510 ± 2,420 M^−1
Absorbance, AO [2.5-20 μM]
  K ± S.D.: 46,840 ± 5,967 M^−1
Absorbance, AO [10-80 μM]
  K ± S.D.: 49,530 ± 2,953 M^−1
